Assay [1] concerns MCF10A expressing inducible ErbB2 receptor. The experiment in a line: Cell traction force measurement by crossbow micropattern bar length on micropatterned PAA, ErbB2 inducible cells. In kind it is cell-based, human. As to conditions: 1 μM, 48 hr before traction force measurement; FIG. 5C. The source says:
When actin cables have an unpredictable spatial distribution, a given deformation cannot be directly assigned to a defined force magnitude. Indeed, forces applied on adjacent adhesion sites both affect local deformations, due to the continuous nature of the substrate. Each deformation results from local and distant forces. So the calculation of the force field is highly dependent on the spatial distribution of force application sites and the relationship between deformation and forces varies from one cell to the other. The inventors hypothesized that in cells developing a reproducible architecture and a controlled pattern of force application, a given local deformation could be assigned to a defined value of the contractile force. […] When the deformation was measured along the shortest, and therefore most contracted, cell axis, the correlation was improved (FIG. 4C). […] On the crossbow, a single image acquisition was sufficient to measure the bar length and read the corresponding average cell traction force using the calibration curve (FIG. 4F). […]
The culture of MCF10A cells and the generation of ΔCK2β cell line was described previously (Deshiere et al (2008) Mol Cell Biochem 316(1-2):107-113). […] Substrate relaxation was assessed by detaching cells with trypsin. […]

The test system of another assay is MCF10A cells. The experiment in a line: Cell traction force measurement by crossbow micropattern bar length on micropatterned PAA. The format is cell-based, human. Here is the method: Non-tumorigenic human epithelial cells from the mammary gland, MCF10A, were plated on the micropatterned PAA substrates. Cells specifically attached to the fibronectin coated micropatterns since non-exposed PAA regions prevented protein adsorption (FIG. 2D). The effect of micropattern geometry on cell traction forces orientation was tested on various shapes: disc, pacman and crossbow (FIG. 3A). Spread cells exerted traction forces on the micropattern that could be measured by looking at the displacement of fluorescent beads embedded in the PAA gel (see FIG. 3B and Material and Methods). Particle Image Velocimetry followed by individual particle tracking were used to measure bead displacements (Marganski et al (2003) Methods Enzymol 361:197-211; Sabass et al (2008) Biophys J 94(1):207-220). Force fields were calculated from the bead displacement fields by using the Fourier transform traction cytometry (Sabass et al, supra; Butler et al (2002) Am J Physiol Cell Physiol 282(3):C595-605). Force fields exerted by individual cells were overlaid and averaged to quantify their reproducibility (FIG. 3C,D). On homogeneously coated regions cells developed forces that were randomly distributed from one cell to the other. In cells constrained on disc shaped micropatterns, forces were still randomly oriented but their magnitudes were lowered due to reduced cell spreading. In cells constrained on pacman shaped micropatterns, forces distribution was geometrically biased due to enhanced cell contraction above non adhesive regions. […] Importantly, most of the traction forces were reproducibly oriented upward, along the straight adhesive bar on the extremity of which the inventors measured the highest pressure (FIG. 3D). […]
When actin cables have an unpredictable spatial distribution, a given deformation cannot be directly assigned to a defined force magnitude. […] When the deformation was measured along the shortest, and therefore most contracted, cell axis, the correlation was improved (FIG. 4C). […]

Regarding `CCC(C)(C)C(=O)C(=O)N1CCCC[C@H]1C(=O)O[C@H](CCc1ccc(OC)c(OC)c1)c1cccc(OCC(=O)NCCNC(=O)COc2cccc([C@@H](CCc3ccc(OC)c(OC)c3)OC(=O)[C@@H]3CCCCN3C(=O)C(=O)C(C)(C)CC)c2)c1` [AP1510], the “level of cell contraction versus WT cells” value in assay [1] is recorded as “no significant changes in the level of cell contraction”.

For the compound `Cc1ccc2c(c1)C(=O)C1(O)CCN(c3ccccc3)C1=N2` (stereo not shown) [Blebbistatin], the “force magnitude decrease over time” value in the assay with MCF10A cells (50 μM, single cell, FIG. 5B) is “follows a single exponential decay”. For the same compound, the “force inhibition profile in response to increasing dose” value in the assay with MCF10A cells (increasing drug concentrations successively applied to 6 cells, crossbow bar length, FIG. 5A) is listed as “matched the myosin II inhibition profile”.

“TGFb1: known to induce epithelial to mesenchymal transition (R&D systems)”: the “level of cell contraction versus WT cells (crossbow shortening)” value in the assay with MCF10A cells (2 ng/mL for 2 days before plating, FIG. 5C) is “significantly higher level of cell contraction”.

The values above are taken from patent US9250241B2, “Use of micropatterned soft substrate for measuring of cell traction forces” (COMMISSARIAT A L'ENERGIE ATOMIQUE ET AUX ENERGIES …, priority 2011, dated 2016).
